Measurements taken from paper PMC5392334, “Discovery and characterization of a novel irreversible EGFR mutants selective and potent kinase inhibitor CHMFL-EGFR-26 with a distinct binding mode” (Oncotarget, 2017).

Experiments:
[1] = target: T1, ANKK1 (Homo sapiens, UniProt Q8NFD2); experiment: KinomeScan; type: binding; details: read-out: % control
T1 construct: purchased DiscoveRx KINOMEscan

[2] = target: T2, AURKB (Homo sapiens, UniProt Q96GD4); experiment: KinomeScan; type: binding; details: read-out: % control
T2 construct: purchased DiscoveRx KINOMEscan

[3] = target: T3, BMPR1A (Homo sapiens, UniProt P36894); experiment: KinomeScan; type: binding; details: read-out: % control
T3 construct: purchased DiscoveRx KINOMEscan

[4] = target: T4, CAMK1B (Homo sapiens, UniProt Q6P2M8); experiment: KinomeScan; type: binding; details: read-out: % control
T4 construct: purchased DiscoveRx KINOMEscan

[5] = target: T5, DRAK1 (Homo sapiens, UniProt Q9UEE5); experiment: KinomeScan; type: binding; details: read-out: % control
T5 construct: purchased DiscoveRx KINOMEscan

[6] = target: T6, FGFR2 (Homo sapiens, UniProt P21802); experiment: KinomeScan; type: binding; details: read-out: % control
T6 construct: purchased DiscoveRx KINOMEscan

[7] = target: T7, GAK (Homo sapiens, UniProt O14976); experiment: KinomeScan; type: binding; details: read-out: % control
T7 construct: purchased DiscoveRx KINOMEscan

[8] = target: T8, GCN2(Kin.Dom.2,S808G) (Homo sapiens, UniProt Q9P2K8, S808G); experiment: KinomeScan; type: binding; details: read-out: % control
T8 construct: GCN2(Kin.Dom.2,S808G); purchased DiscoveRx KINOMEscan

[9] = target: T9, JAK1(JH1domain-catalytic) (Homo sapiens, UniProt P23458); experiment: KinomeScan; type: binding; details: read-out: % control
T9 construct: JAK1(JH1domain-catalytic); purchased DiscoveRx KINOMEscan

[10] = target: T10, MEK5 (Homo sapiens, UniProt Q13163); experiment: KinomeScan; type: binding; details: read-out: % control
T10 construct: purchased DiscoveRx KINOMEscan

[11] = target: T11, MKK7 (Homo sapiens, UniProt O14733); experiment: KinomeScan; type: binding; details: read-out: % control
T11 construct: purchased DiscoveRx KINOMEscan

[12] = target: T12, MKNK1 (Homo sapiens, UniProt Q9BUB5); experiment: KinomeScan; type: binding; details: read-out: % control
T12 construct: purchased DiscoveRx KINOMEscan

[13] = target: T13, MLK3 (Homo sapiens, UniProt Q16584); experiment: KinomeScan; type: binding; details: read-out: % control
T13 construct: purchased DiscoveRx KINOMEscan

[14] = target: T14, NEK11 (Homo sapiens, UniProt Q8NG66); experiment: KinomeScan; type: binding; details: read-out: % control
T14 construct: purchased DiscoveRx KINOMEscan

[15] = target: T15, NEK3 (Homo sapiens, UniProt P51956); experiment: KinomeScan; type: binding; details: read-out: % control
T15 construct: purchased DiscoveRx KINOMEscan

[16] = target: T16, PHKG2 (Homo sapiens, UniProt P15735); experiment: KinomeScan; type: binding; details: read-out: % control
T16 construct: purchased DiscoveRx KINOMEscan

[17] = target: T17, PIP5K2C (Homo sapiens, UniProt Q8TBX8); experiment: KinomeScan; type: binding; details: read-out: % control
T17 construct: purchased DiscoveRx KINOMEscan

[18] = target: RPS6KA5(Kin.Dom.2-C-terminal) (Homo sapiens, UniProt O75582); experiment: KinomeScan; type: binding; details: read-out: % control
[19] = target: T18, TLK1 (Homo sapiens, UniProt Q9UKI8); experiment: KinomeScan; type: binding; details: read-out: % control
T18 construct: purchased DiscoveRx KINOMEscan

[20] = system: autophosphorylation of EGFR Y1068 in H1975 cell line; experiment: Signaling pathway examination (immunoblotting); type: cell-based, human; details: 10 nM, 4 hours
Description: (§1) We next examined the effects of CHMFL-EGFR-26 on EGFR mediated signaling pathways in NSCLC cell lines with different EGFR mutants. […] As expected, in the EGFR wt expressing NCSCL cell lines A549 and H1355, only autophosphorylation of EGFR was affected and none of the downstream mediators was inhibited.
(§2) Cells were then collected and lysed. Phospho-EGF Receptor, Phospho-EGF Receptor (Tyr1068), Stat3, Phospho-Stat3 (Tyr705), AKT, Phospho-AKT (Ser473), Phospho-AKT (Thr308), p44/42 MAPK (Erk1/2), Phospho-p44/42 MAPK (Erk1/2) (Thr202/ Tyr204), p70 S6 Kinase, Phospho-p70 S6 Kinase (Thr389), eIF4E, Phospho-eIF4E (Ser209), 4E-BP1, Phospho-4E-BP1 (Thr37/46) antibody (Cell Signaling Technology) were used for immunoblotting.

[21] = system: p70S6K and eIF4E phosphorylations in H3255 cells; experiment: Signaling pathway examination (immunoblotting); type: cell-based, human; details: 30 nM, 4 hours
Description: as §1, §2

[22] = system: PC9 tumor xenografts; experiment: PC9 cell inoculated xenograft mouse model; type: in vivo, mice; details: 21-day treatment
Protocol: Figure 5 Anti-tumor efficacy of CHMFL-EGFR-26 in PC9 cell inoculated xenograft mouse mode Female nu/nu mice bearing established PC9 tumor xenografts were treated with CHMFL-EGFR-26 at 25.0 and 50.0 mg/kg/d, or vehicle. Daily oral administration was initiated when PC9 tumors had reached a size of 200 to 400 mm^3. Each group contained 7 or 8 animals. Data, mean ± SEM. A. Body weight and B. Tumor size measurements from PC9 xenograft mice after CHMFL-EGFR-26 administration. Initial body weight and tumor size were set as 100%. C. Representative photographs of tumors in each group after 25.0 or 50.0 mg/kg/d CHMFL-EGFR-26 or vehicle treatment. D. Comparison of the final tumor weight in each group after 21-day treatment period. Numbers in columns indicate the mean tumor weight in each group. E. Representative micrographs of hematoxylin and eosin (HE), Ki-67, and TUNEL staining of tumor tissues with CHMFL-EGFR-26 treatment compared to the vehicle-treated group. […]
Five-week old female nu/nu mice were purchased from the Shanghai Experimental Center, Chinese Science Academy (Shanghai, China). […] Body weight and tumor growth was measured daily after CHMFL-EGFR-26 treatment. Tumor volumes were calculated as follows: tumor volume (mm^3)= [(W^2 × L)/2] in which width (W) is defined as the smaller of the two measurements and length (L) is defined as the larger of the two measurements.

T11 sequence (O14733 whole entry): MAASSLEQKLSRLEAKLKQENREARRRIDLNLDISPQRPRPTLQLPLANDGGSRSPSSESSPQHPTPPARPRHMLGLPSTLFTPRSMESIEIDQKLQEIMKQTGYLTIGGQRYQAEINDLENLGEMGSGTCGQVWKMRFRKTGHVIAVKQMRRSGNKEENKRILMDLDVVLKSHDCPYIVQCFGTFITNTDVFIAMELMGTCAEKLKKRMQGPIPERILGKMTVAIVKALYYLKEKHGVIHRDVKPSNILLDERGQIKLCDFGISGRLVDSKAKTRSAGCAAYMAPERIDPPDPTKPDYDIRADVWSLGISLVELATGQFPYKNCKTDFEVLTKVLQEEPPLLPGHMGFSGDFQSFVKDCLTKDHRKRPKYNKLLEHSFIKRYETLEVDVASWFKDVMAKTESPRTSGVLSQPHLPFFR
Sequence of RPS6KA5(Kin.Dom.2-C-terminal) (O75582 388-802 limits assumed): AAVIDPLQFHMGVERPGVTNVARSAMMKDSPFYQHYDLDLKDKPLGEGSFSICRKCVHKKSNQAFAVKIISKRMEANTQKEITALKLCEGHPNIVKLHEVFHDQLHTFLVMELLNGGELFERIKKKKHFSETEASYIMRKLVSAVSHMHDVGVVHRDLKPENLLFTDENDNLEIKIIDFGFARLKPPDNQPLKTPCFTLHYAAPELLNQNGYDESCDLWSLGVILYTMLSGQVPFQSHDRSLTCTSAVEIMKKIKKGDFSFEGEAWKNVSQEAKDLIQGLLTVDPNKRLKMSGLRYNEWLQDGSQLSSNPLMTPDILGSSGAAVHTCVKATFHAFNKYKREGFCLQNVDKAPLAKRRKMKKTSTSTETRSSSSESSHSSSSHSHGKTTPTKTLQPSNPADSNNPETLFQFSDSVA
T2 sequence (Q96GD4 whole entry): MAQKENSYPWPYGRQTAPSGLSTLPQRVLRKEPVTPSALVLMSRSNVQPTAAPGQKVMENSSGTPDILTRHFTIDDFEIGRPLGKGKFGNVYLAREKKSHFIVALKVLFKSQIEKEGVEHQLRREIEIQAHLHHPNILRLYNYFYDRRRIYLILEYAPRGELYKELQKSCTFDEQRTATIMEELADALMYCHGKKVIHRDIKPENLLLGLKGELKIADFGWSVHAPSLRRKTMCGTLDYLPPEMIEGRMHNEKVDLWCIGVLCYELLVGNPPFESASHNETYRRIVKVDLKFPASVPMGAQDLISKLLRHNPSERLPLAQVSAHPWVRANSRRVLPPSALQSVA
T13 sequence (Q16584 whole entry): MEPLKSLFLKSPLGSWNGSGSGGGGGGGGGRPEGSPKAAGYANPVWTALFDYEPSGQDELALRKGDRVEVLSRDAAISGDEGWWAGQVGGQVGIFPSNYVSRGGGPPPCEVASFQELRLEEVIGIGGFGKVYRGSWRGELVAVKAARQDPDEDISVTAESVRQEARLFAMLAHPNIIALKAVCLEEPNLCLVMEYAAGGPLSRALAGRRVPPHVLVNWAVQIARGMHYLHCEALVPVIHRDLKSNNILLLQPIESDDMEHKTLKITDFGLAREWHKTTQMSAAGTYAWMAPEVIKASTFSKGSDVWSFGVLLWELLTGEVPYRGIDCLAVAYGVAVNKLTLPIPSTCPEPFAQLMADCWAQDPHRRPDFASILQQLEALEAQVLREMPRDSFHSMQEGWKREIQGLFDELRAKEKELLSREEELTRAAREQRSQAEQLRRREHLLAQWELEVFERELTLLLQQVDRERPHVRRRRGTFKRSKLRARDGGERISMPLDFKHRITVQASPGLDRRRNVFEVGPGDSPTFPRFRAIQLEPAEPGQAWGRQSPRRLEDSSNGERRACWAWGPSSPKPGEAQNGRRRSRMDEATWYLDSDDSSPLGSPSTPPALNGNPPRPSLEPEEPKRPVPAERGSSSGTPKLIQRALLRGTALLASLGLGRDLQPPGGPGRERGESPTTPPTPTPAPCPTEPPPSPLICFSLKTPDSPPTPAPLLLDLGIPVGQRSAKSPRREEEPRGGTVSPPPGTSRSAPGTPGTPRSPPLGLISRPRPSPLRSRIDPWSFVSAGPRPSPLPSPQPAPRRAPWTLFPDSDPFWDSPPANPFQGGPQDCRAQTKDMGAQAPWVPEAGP
T9 sequence (P23458 875-1154 limits assumed): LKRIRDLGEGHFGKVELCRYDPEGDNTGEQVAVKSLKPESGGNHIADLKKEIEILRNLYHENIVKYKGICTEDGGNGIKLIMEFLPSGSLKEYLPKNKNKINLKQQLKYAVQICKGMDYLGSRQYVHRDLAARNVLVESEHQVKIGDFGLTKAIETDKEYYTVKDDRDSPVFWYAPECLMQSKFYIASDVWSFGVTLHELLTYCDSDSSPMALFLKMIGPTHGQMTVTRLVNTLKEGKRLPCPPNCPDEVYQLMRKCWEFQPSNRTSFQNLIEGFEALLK
T1 sequence (Q8NFD2 whole entry): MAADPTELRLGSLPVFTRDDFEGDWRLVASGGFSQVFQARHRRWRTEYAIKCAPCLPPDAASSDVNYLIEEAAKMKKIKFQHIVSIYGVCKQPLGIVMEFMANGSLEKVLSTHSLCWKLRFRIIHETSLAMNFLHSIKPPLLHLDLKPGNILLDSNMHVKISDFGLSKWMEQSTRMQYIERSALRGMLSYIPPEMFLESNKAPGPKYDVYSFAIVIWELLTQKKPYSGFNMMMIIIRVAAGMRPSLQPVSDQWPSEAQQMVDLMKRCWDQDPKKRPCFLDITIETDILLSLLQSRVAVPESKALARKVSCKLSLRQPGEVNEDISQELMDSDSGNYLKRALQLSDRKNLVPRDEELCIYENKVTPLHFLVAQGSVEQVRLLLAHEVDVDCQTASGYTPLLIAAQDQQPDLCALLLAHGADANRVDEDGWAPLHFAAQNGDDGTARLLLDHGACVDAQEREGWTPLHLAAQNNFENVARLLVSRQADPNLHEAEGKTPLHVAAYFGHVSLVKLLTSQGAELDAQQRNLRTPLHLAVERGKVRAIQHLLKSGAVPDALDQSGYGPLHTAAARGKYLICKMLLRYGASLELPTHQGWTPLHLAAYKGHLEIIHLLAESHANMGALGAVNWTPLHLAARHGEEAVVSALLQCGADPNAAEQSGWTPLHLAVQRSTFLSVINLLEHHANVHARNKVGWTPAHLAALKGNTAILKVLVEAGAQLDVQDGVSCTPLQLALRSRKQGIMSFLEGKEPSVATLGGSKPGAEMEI
T18 sequence (Q9UKI8 whole entry): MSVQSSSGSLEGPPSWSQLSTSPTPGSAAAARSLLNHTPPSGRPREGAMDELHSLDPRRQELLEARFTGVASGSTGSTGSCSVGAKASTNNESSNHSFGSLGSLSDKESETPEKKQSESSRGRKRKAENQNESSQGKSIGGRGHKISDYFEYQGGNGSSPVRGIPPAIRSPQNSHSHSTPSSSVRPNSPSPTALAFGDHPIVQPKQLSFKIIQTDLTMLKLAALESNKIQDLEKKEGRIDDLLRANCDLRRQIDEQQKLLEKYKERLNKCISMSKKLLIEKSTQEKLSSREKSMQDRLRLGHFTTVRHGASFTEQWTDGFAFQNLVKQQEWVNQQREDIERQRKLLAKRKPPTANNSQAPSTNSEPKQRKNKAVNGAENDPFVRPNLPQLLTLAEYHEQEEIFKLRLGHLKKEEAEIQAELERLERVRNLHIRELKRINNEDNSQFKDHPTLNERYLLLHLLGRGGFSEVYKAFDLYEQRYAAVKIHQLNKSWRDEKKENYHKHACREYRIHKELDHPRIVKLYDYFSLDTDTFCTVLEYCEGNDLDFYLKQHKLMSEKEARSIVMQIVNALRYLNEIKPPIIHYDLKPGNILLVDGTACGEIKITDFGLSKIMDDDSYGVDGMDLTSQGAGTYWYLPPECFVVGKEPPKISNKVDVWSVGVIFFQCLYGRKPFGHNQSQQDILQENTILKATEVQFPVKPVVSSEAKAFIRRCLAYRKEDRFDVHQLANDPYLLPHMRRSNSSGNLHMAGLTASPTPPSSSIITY
T17 sequence (Q8TBX8 whole entry): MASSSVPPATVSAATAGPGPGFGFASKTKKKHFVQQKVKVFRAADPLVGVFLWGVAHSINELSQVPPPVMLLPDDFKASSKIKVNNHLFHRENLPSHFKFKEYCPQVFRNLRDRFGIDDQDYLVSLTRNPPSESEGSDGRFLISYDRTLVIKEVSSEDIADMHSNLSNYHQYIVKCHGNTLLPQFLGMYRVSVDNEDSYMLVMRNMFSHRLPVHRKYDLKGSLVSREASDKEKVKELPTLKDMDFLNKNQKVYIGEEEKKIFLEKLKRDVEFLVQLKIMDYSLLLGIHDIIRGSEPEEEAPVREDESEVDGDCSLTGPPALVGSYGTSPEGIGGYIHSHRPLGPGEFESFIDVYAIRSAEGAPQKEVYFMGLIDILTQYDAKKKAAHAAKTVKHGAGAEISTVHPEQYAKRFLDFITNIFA
T8 sequence (Q9P2K8 590-1001 S808G limits assumed): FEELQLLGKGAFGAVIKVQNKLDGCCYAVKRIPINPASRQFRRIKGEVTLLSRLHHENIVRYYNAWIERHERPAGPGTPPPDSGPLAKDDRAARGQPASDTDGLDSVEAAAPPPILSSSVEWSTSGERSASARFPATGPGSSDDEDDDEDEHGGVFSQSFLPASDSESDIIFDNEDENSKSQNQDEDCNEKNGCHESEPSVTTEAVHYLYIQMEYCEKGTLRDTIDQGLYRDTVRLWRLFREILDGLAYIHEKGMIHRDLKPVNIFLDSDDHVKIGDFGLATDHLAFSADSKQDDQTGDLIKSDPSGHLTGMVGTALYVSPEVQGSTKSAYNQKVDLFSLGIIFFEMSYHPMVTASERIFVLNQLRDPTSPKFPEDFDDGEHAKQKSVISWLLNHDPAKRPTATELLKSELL

SMILES: C=CC(=O)N1CCC[C@@H](n2nc(-c3ccc(OCc4cccc(C)n4)c(Cl)c3)c3c(N)ncnc32)C1 [CHMFL-EGFR-26]
- remaining binding at 1 µM [1]: 94%
- remaining binding at 1 µM [2]: 77%
- remaining binding at 1 µM [3]: 100%
- remaining binding at 1 µM [4]: 82%
- remaining binding at 1 µM [5]: 100%
- remaining binding at 1 µM [6]: 100%
- remaining binding at 1 µM [7]: 72%
- remaining binding at 1 µM [8]: 90%
- remaining binding at 1 µM [9]: 91%
- remaining binding at 1 µM [10]: 0.1%
- remaining binding at 1 µM [11]: 2.5%
- remaining binding at 1 µM [12]: 100%
- remaining binding at 1 µM [13]: 100%
- remaining binding at 1 µM [14]: 100%
- remaining binding at 1 µM [15]: 83%
- remaining binding at 1 µM [16]: 100%
- remaining binding at 1 µM [17]: 85%
- remaining binding at 1 µM [18]: 100%
- remaining binding at 1 µM [19]: 84%
- autophosphorylation of EGFR Y1068 [20]: almost completely suppress
- mTOR-p70S6K and eIF4E phosphorylations [21]: completely blocked
- Tumor weight (final, mean) ([22]; 25 mg/kg/d oral): 0.93 g
- Tumor weight (final, mean) ([22]; 50 mg/kg/d oral): 0.68 g
